# Measured values taken from PMC11679574, “Intestinal Cells-on-Chip for Permeability Studies” (Micromachines, 2024).
# Where two headings read alike, the source gives them in different places.
# Columns and labels:
# [1] = tested on: glucuronosyltransferases (UGTs); test: Phase II metabolism of 7-hydroxycoumarin in enteroid monolayers, static Transwell; type: in vitro ADME, human; details: enteroids, 12 µM
# Description: (§1) For specific inhibition, 5 µM elacridar and 5 µM ketoconazole (both Sigma-Aldrich, Zwijndrecht, The Netherlands) were used. The drug cocktail was added to the apical medium reservoirs of chip experiments (flow) and the apical insert of static Transwell inserts. Inhibitors were added to both apical dose solution and basolateral transport buffer. During experiments, samples were collected at different timepoints from both apical and basolateral medium reservoirs, mixed with equal volume of ultrapure MeOH and stored at −20 °C until analysis by LC-MS/MS.
# (§2) For quantification, a standard of parental compounds and metabolites was prepared in the same medium as samples. Metabolites included were 1’-hydroxymidazolam (Sigma-Aldrich) and 7-hydroxycoumarin glucuronide (LGC Standards, OLY, UK). Both standard and samples were centrifuged for 10 min at 1500× g to precipitate protein, and subsequently, 1 µL was injected. […] A limit of quantification (LOQ) was determined for each compound based on the standard curve and a limit of detection (LOD) was determined based on a noise signal. For each experiment, corresponding dose and blanks were included in measurements. Recovery was calculated as the percentage of original dose added to the system.
# (§3) All static control experiments were performed in cell monolayers cultured on transparent Transwell inserts (Corning, Life Sciences BV, Amsterdam, The Netherlands). […]
# [2] = tested on: glucuronosyltransferases (UGTs); test: Phase II metabolism of 7-hydroxycoumarin in enteroid monolayers, chip system; type: in vitro ADME, human; details: enteroids, 12 µM
# Description: To add the culture disc with cells into the system, it was transferred to a biosafety cabinet, the chips were opened from the top and the discs were added to the chip, after which they were closed using a twisting cap mechanism. Sufficient medium was added to the chip to ensure no air bubbles were trapped during this procedure. Flow speed was adjusted to 17 µL/min and the system was placed back into a cell culture incubator (37 °C, 5% CO2). After a short period of equilibration, transport medium (with/without compound of interest) was added to apical and basolateral reservoirs, with the basolateral medium containing 4% BSA. The medium volumes in the reservoirs depended on the duration of the experiment and the sample volumes required but were between 5 and 6.5 mL. To completely replace the medium inside the tubing and chip with fresh transport medium, the system was run without medium recirculation for 30 min prior to the start of measurements. Details on the permeability measurements are described below. […]
# (§4) For quantification, a standard of parental compounds and metabolites was prepared in the same medium as samples. […] A limit of quantification (LOQ) was determined for each compound based on the standard curve and a limit of detection (LOD) was determined based on a noise signal. […] Recovery was calculated as the percentage of original dose added to the system.
# [3] = no reference given; cited from earlier work
# [4] = Permeability in cell-on-chip system under laminar flow, enteroid monolayers; details: human
# Description: (§5) To add the culture disc with cells into the system, it was transferred to a biosafety cabinet, the chips were opened from the top and the discs were added to the chip, after which they were closed using a twisting cap mechanism. Sufficient medium was added to the chip to ensure no air bubbles were trapped during this procedure. Flow speed was adjusted to 17 µL/min and the system was placed back into a cell culture incubator (37 °C, 5% CO2). After a short period of equilibration, transport medium (with/without compound of interest) was added to apical and basolateral reservoirs, with the basolateral medium containing 4% BSA. The medium volumes in the reservoirs depended on the duration of the experiment and the sample volumes required but were between 5 and 6.5 mL. To completely replace the medium inside the tubing and chip with fresh transport medium, the system was run without medium recirculation for 30 min prior to the start of measurements. Details on the permeability measurements are described below.
# (§6) Leakage to the basolateral medium was determined using the BioTek Synergy H1 microplate reader (BioSPX, Abcoude, The Netherlands). […] Apparent permeability values (Papp) were calculated according to Equation (1):(1) Papp=dQ/dt×(1/A×C0) in which dQ/dt is the amount of drug transported over the barrier (ng/sec), A is the exposed area of the cell monolayer (cm^2) and C0 is the initial dose concentration of the compound (ng/mL). All measurements were performed under flow (17 µL/min), and the chip system was inside a cell culture incubator (37 °C, 5%CO2) during the entire experiment, as described in Section 2.6.
# (§7) Apical and basolateral medium reservoirs were sampled at t = 0, 1, 2 and 4 h. All measurements were performed under flow (17 µL/min), and the chip system was inside a cell culture incubator (37 °C, 5% CO2) during the entire experiment, as described in Section 2.6.
# as §1, §4
# [5] = in vitro; details: human
# Description: as §6, §7, §1, §2
# (§8) All static control experiments were performed in cell monolayers cultured on transparent Transwell inserts (Corning, Life Sciences BV, Amsterdam, The Netherlands). Procedures for seeding and culturing were exactly the same as previously reported. […] The only difference was in the volume of apical (100 µL) and basolateral (600 µL) compartment, which was accounted for in Papp calculations. All measurements were performed inside a cell culture incubator (37 °C, 5% CO2).
# [6] = biological target: CYP3A4 (Homo sapiens, UniProt P08684); test: Phase I metabolism of midazolam in enteroid monolayers, static Transwell; details: enteroids, static Transwell cultures
# Description: as §1, §2, §3
# [7] = Compound recovery, cell-on-chip system; type: in vitro ADME; details: human, read-out: Recovery, percentage of original dose
# [8] = tested on: enteroid monolayers; test: Permeability in cell-on-chip system under laminar flow, enteroid monolayers
# Description: as §5, §6, §7, §1, §4
# [9] = tested on: enteroid monolayers; test: in vitro
# Description: as §6, §7, §1, §2, §8
# [10] = tested on: Caco-2 monolayers; test: Permeability in static Transwell inserts, Caco-2 monolayers; type: in vitro ADME, human; details: static culture, intact Caco-2 monolayer
# Description: Leakage to the basolateral medium was determined using the BioTek Synergy H1 microplate reader (BioSPX, Abcoude, The Netherlands). FD4 was measured with an excitation/emission wavelength of 485 nm and 528 nm, and CB was measured at 365 nm and 412 nm, respectively. Apparent permeability values (Papp) were calculated according to Equation (1):(1) Papp=dQ/dt×(1/A×C0) in which dQ/dt is the amount of drug transported over the barrier (ng/sec), A is the exposed area of the cell monolayer (cm^2) and C0 is the initial dose concentration of the compound (ng/mL).
# All static control experiments were performed in cell monolayers cultured on transparent Transwell inserts (Corning, Life Sciences BV, Amsterdam, The Netherlands). […] The only difference was in the volume of apical (100 µL) and basolateral (600 µL) compartment, which was accounted for in Papp calculations. All measurements were performed inside a cell culture incubator (37 °C, 5% CO2).
# CYP3A4, sequence (P08684 whole entry): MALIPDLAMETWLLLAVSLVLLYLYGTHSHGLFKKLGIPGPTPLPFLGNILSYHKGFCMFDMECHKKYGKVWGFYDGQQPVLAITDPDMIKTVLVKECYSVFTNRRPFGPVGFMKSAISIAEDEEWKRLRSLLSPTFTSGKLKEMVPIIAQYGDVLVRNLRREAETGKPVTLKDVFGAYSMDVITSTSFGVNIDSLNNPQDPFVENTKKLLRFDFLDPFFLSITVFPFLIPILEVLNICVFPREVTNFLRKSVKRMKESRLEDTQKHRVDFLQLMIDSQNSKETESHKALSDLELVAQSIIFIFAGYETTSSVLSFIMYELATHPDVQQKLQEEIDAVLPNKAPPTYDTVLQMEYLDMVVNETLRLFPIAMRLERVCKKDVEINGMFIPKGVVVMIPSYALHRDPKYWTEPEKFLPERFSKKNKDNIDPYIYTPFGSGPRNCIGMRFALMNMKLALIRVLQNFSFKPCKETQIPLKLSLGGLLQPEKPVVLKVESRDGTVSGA
compound,measurement,setting,value
"O=c1ccc2ccc(O)cc2o1 [7OH-coumarin, 7-hydroxycoumarin]",7-hydroxycoumarin glucuronide formation,[1],confirm UGT activity
same,7-hydroxycoumarin glucuronide formation,[2],confirm UGT activity
"Cc1cc(=O)n(-c2ccccc2)n1C [Antipyrine, antipyrine]",fraction absorbed (Fa),[3],100%
"CC(C)NCC(O)COc1ccc(CC(N)=O)cc1 (stereo not drawn) [Atenolol, atenolol]",fraction absorbed (Fa),[3],50%
"CN(C)C(=N)N=C(N)N [Metformin, metformin]",Papp A→B,[4],4.6 ×10⁻⁶ cm/s
same,Papp A→B,[5],1.44 ×10⁻⁶ cm/s
"Cc1ncc2n1-c1ccc(Cl)cc1C(c1ccccc1F)=NC2 [Midazolam, midazolam]",OH-midazolam formation,[6]; in the presence of ketoconazole 5 µM,absent
same,OH-midazolam formation,[6]; midazolam 10 µM,increase in OH-midazolam over time
same,recovery at 10 µM,[7]; chips containing translucent membranes,41%
same,recovery at 10 µM,[7]; chips with transparent membranes,11%
"CC(C)c1nc(N(C)S(C)(=O)=O)nc(-c2ccc(F)cc2)c1/C=C/[C@@H](O)C[C@@H](O)CC(=O)O [Rosuvastatin, rosuvastatin]",Papp A→B,[4],1.11 ×10⁻⁶ cm/s
same,Papp (in words),"[8]; enteroids, chip experiments, drug cocktail, 10 µM",low
same,Papp A→B,[5],0.7 ×10⁻⁶ cm/s
same,Papp (in words),[9],low
Cascade Blue [CB],Overall permeation compared to FD4,"[8]; chip system, overall over cell types and membranes",approximately 2 fold
same,Papp,"[9]; static culture, intact enteroid monolayer",0.08 ·10^−6 cm/s
same,Papp,[10],0.5 ·10^−6 cm/s
Dextran-FITC 4 kDa [FD4],"Papp A to B, Static",[9],0.01 ×10⁻⁶ cm/s
